We go through ten compounds from patent US8222404B2, “[1,2,4]Thiadiazin-3-yl acetic acid compound and methods of making the acetic acid compound” (Anadys Pharmaceuticals, Inc., priority 2008, dated 2012).

pEC50: −log10 of the molar value.

The test system of this experiment is HCV Huh-luc/neo-ET replicon cells. Nature of the experiment: Luciferase-Based HCV Replicon Assay (EC50 (1b)). The format is cell-based. The note with it: Hepatitis C virus, 72 hours exposure, luciferase activity. An outline of the steps:
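EC50 (1b) derived from % inhibition of luciferase signal relative to untreated cells, background set by 100 nM BILN-2061 (protease inhibitor). Triplicate dose series added to replicon cells 24 h post-seeding; luminescence measured after 72 h compound exposure.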
Take `CS(=O)(=O)NCc1csc2c1S(=O)(=O)N=C(C1=C(O)[C@@H]3CCC[C@@H]3N(Cc3ccccc3)C1=O)N2` [Example 124, (4aR,7aS)-N-[3-(1-Benzyl-4-hydroxy-2-oxo-2,4a,5,6,7,7a-hexahydro-1H-[1]pyrindin-3-yl)-1,1-dioxo-1,4-dihydro-1λ^6-thieno[2,3-e][1,2,4]thiadiazin-7-ylmethyl]-methanesulfonamide]: the pEC50 – broadly, −log10 of the EC50, conventionally taken in molar units – is 7.70 to 8.30.

`CS(=O)(=O)NCc1csc2c1S(=O)(=O)N=C(C1=C(O)[C@@H]3[C@H]4CC[C@H](C4)[C@@H]3N(CCC3CC3)C1=O)N2` [Example 106, N-{3-[(1R,2S,7R,8S)-3-(2-Cyclopropyl-ethyl)-6-hydroxy-4-oxo-3-aza-tricyclo[6.2.1.0^2,7]undec-5-en-5-yl]-1,1-dioxo-1,4-dihydro-1λ^6-thieno[2,3-e][1,2,4]thiadiazin-7-ylmethyl}-methanesulfonamide] had a pEC50 of 7.70 to 8.30.

Turning to `CS(=O)(=O)NCc1csc2c1S(=O)(=O)N=C(C1=C(O)[C@@H]3[C@H]4CC[C@H](C4)[C@@H]3N(Cc3ccc(F)c(F)c3)C1=O)N2` [Example 88, N-{3-[(1R,2S,7R,8S)-3-(3,4-Difluoro-benzyl)-6-hydroxy-4-oxo-3-aza-tricyclo[6.2.1.0^2,7]undec-5-en-5-yl]-1,1-dioxo-1,4-dihydro-1λ^6-thieno[2,3-e][1,2,4]thiadiazin-7-ylmethyl}-methanesulfonamide], the pEC50 was no less than 8.30.

On to `CS(=O)(=O)NCc1csc2c1S(=O)(=O)N=C(C1=C(O)C3CCCCC3N(Cc3ccc(F)cc3)C1=O)N2` (racemic) [Example 116, (rac-cis)-N-{3-[1-(4-Fluoro-benzyl)-4-hydroxy-2-oxo-1,2,4a,5,6,7,8,8a-octahydro-quinolin-3-yl]-1,1-dioxo-1,4-dihydro-1λ^6-thieno[2,3-e][1,2,4]thiadiazin-7-ylmethyl}-methanesulfonamide], for which the pEC50 is 7.00 to 7.70.

With `CC(C)(C)CCN1C(=O)C(C2=NS(=O)(=O)c3c(CNS(C)(=O)=O)csc3N2)=C(O)[C@@H]2CCC[C@@H]21` [Example 129, (4aR,7aS)-N-{3-[1-(3,3-Dimethyl-butyl)-4-hydroxy-2-oxo-2,4a,5,6,7,7a-hexahydro-1H-[1]pyrindin-3-yl]-1,1-dioxo-1,4-dihydro-1λ^6-thieno[2,3-e][1,2,4]thiadiazin-7-ylmethyl}-methanesulfonamide], the pEC50 was 7.70 to 8.30.

Turning to `Cc1cc(CN2C(=O)C(C3=NS(=O)(=O)c4c(CNS(C)(=O)=O)csc4N3)=C(O)[C@@H]3[C@H]4CC[C@H](C4)[C@@H]32)ccc1F` [Example 53, N-{3-[(1R,2S,7R,8S)-3-(4-Fluoro-3-methyl-benzyl)-6-hydroxy-4-oxo-3-aza-tricyclo[6.2.1.0^2,7]undec-5-en-5-yl]-1,1-dioxo-1,4-dihydro-1λ^6-thieno[2,3-e][1,2,4]thiadiazin-7-ylmethyl}-methanesulfonamide], the pEC50 is 7.70 to 8.30.

Turning to `CS(=O)(=O)NCc1csc2c1S(=O)(=O)N=C(C1=C(O)C3CCCCCC3N(Cc3ccc(F)cc3)C1=O)N2` (racemic) [Example 120, (rac-cis)-N-{3-[1-(4-Fluoro-benzyl)-4-hydroxy-2-oxo-2,4a,5,6,7,8,9,9a-octahydro-1H-cyclohepta[b]pyridin-3-yl]-1,1-dioxo-1,4-dihydro-1λ^6-thieno[2,3-e][1,2,4]thiadiazin-7-ylmethyl}-methanesulfonamide], the pEC50 is 7.00 to 7.70.

Regarding `NS(=O)(=O)NCc1csc2c1S(=O)(=O)N=C(C1=C(O)[C@@H]3[C@H]4CC[C@H](C4)[C@@H]3N(Cc3ccc(F)cc3)C1=O)N2` [Example 34, N-{3-[(1R,2S,7R,8S)-3-(4-Fluoro-benzyl)-6-hydroxy-4-oxo-3-aza-tricyclo[6.2.1.0^2,7]undec-5-en-5-yl]-1,1-dioxo-1,4-dihydro-1λ^6-thieno[2,3-e][1,2,4]thiadiazin-7-ylmethyl}-sulfamide], the negative logarithm of the EC50 (pEC50) is 6.00 to 7.00.

For the compound `CS(=O)(=O)NCc1csc2c1S(=O)(=O)N=C(C1=C(O)C3C4CCC(O4)C3N(Cc3ccccc3)C1=O)N2` (racemic) [Example 45, (rac-di-exo)-N-[3-(3-Benzyl-6-hydroxy-4-oxo-11-oxa-3-aza-tricyclo[6.2.1.0^2,7]undec-5-en-5-yl)-1,1-dioxo-1,4-dihydro-1λ^6-thieno[2,3-e][1,2,4]thiadiazin-7-ylmethyl]-methanesulfonamide], the pEC50 was 7.00 to 7.70.

Turning to `CS(=O)(=O)NCc1csc2c1S(=O)(=O)N=C(C1=C(O)C3C4C=CC(C4)C3N(Cc3ccccc3)C1=O)N2` (racemic) [Example 46, (rac-di-exo)-N-[3-(3-Benzyl-6-hydroxy-4-oxo-3-aza-tricyclo[6.2.1.0^2,7]undeca-5,9-dien-5-yl)-1,1-dioxo-1,4-dihydro-1λ^6-thieno[2,3-e][1,2,4]thiadiazin-7-ylmethyl]-methanesulfonamide], the pEC50 is no less than 8.30.
